From US20030185956A1, “Separation method” (priority 2000, published 2003) come the findings set out here.

In general, solubility refers to the dissolved amount per volume that the medium holds. The low end stands for little dissolved substance, the high end for much dissolved substance.

The nature of series [1]: Separation in model membrane reactor, water to n-decane across cellulose acetate dialysis membrane. As to conditions: for recovered into the decane / amount recovered into the decane: Example 5, after 2.5 days; for recovered into the decane: 20 g macerated grapefruit peel (nootkatone 4.3 mg, limonene 135 mg) in 35 ml water; for amount recovered into the decane: grapefruit peel. Type of series: physicochemical. As to the method: (§1) Separation experiments were carried out in a small model membrane reactor which consisted of an upper and lower chamber separated by 0.002 m^2 of membrane. Thorough mixing was ensured by use of a magnetic stirrer with a separate stirring bar contained within each chamber. Membrane separations were carried out at room temperature (22° C.).
Gas Chromatography (g.c.)
Analysis of valencene, nootkatone, 1,2-epoxyoctane and 1-octene.
Column—SE-30 capillary (Alltech, Carnforth, Lancs, UK), ID 0.32 mm, film thickness 0.25 μm.
Temperature program 200° C. for 5 min. 10° C. min^−1
Injector/detector temperature—300° C.
Carrier gas-helium, head pressure 0.35 bar

Series [2] in a line: Selective extraction from water into n-decane in dialysis tubing (shaken flask). Type of series: physicochemical. To be noted: Example 6, 30° C., 45 hours; for amount present in the n-decane phase: 100 mg limonene + 20 mg carvone in 100 ml water, 50 ml n-decane, 150 rpm. How it is done:
Dialysis tubing (cellulose acetate visking tubing MW cut off 12-14,000 Da) containing 50 ml n-decane was added to the flask and the whole incubated at 30° C. with shaking at 150 rpm for 45 hours.

The next series can be described thus: physchem. As to conditions: 25 °C, water.
Series [3] in a line: Product recovery from fungal culture broth into solvent in dialysis tubing. It counts as physicochemical. As to conditions: for recovered into the n-decane: 72 h incubation, nootkatol and nootkatone approx. 3.3 mg combined, valencene approx. 150 mg. How it is done: Product recovery experiments were carried out in fungal or bacterial cultures or in suspensions of fungal or bacterial cells. Reaction media contained: unreacted substrate valencene at 0.3-1.4 mg ml^−1 and the reaction products nootkatol and nootkatone in concentrations ranging from 0.02-0.2 mg ml^−1. Nootkatol and nootkatone differ from the substrate valencene by the presence of only a single hydroxyl or a single keto group respectively. [drawing 1]
Dialysis tubing (as described in Example 1) pre-soaked in deionised water, containing n-hexane (50 ml) was added to each of two separate fungal cultures. On addition of hexane filled tubing, reaction mixtures contained the following:
Culture one contained culture broth and biomass (100 ml), residual valencene (approximately 35 mg) and product nootkatone (2.3 mg). Culture two contained culture broth and biomass (100 ml), residual valencene (approximately 33 mg), product nootkatone (3.8 mg), and Tween 80 (trade mark) (1.3 g).
After 48 h extraction time (30° C., shaking at 160 rpm), 96% of nootkatone had been recovered from culture broth one into n-hexane in the dialysis tubing. The remaining nootkatone was detected in the culture broth. Valencene was not detected in the n-hexane extraction solvent. The efficiency of extraction from culture broth two was 68%. The remaining nootkatone was detected in the culture broth. A trace amount of valencene was detected in the extraction solvent.
Dialysis tubing (details described in Example 7) pre-soaked in deionised water, containing n-decane (50 ml) was added to a fungal culture medium containing: culture broth and biomass (100 ml); residual valencene (approximately 150 mg) and the products nootkatol and nootkatone (approx. 3.3 mg combined weight). After 72 h incubation (conditions described in Example 7) 100% of the nootkatol and nootkatone products had been recovered into the n-decane in the dialysis tubing. Valencene was not detected in the n-decane.

Series [4] can be described thus: Separation in model membrane reactor across Supor membrane. It counts as physicochemical. As to conditions: Example 3. As to the method: as §1

In brackets after ≈: the same amount, converted by molar mass.

Regarding `CCCCCCC1CO1` (stereo not shown) [1,2-epoxyoctane], the Rate of flux in series [1] (not told) was 1.45 g h^−1m^−2 for 1,2-epoxyoctane.
With `C=C(C)C1CC=C(C)C(=O)C1` (stereo not shown) [carvone], in series [2], the “amount present in the n-decane phase” value is 8 mg and the “share of amount originally added to the water phase found in n-decane” value worked out at 40%. Also, the solubility in “physchem” is ~600 µg/mL (≈ 3.99 mM).
As for `C=C(C)[C@H]1CC=C(C)CC1` [limonene], in series [2], the “amount present in the n-decane phase” value came to 2.0 mg and the “share of amount originally added to the water phase found in n-decane” value turned out to be 2%. Besides, in series [1], the “recovered into the decane” value was 5% and the “amount recovered into the decane” value is on record as 4.6 mg.
As for `C=C(C)[C@@H]1CCC2=CC(O)C[C@@H](C)[C@]2(C)C1` (stereo partly shown) [nootkatol], the “recovered into the n-decane” value in series [3] (Example 8) amounted to 100%.
In turn, `C=C(C)[C@@H]1CCC2=CC(=O)C[C@@H](C)[C@]2(C)C1` [nootkatone] registered a Rate of flux in series [4] of 0.130 g h^−1m^−2 for nootkatone. The “recovered from culture broth into n-hexane” value in series [3] (Example 7, culture one (no Tween 80), 48 h, 30° C., 160 rpm) amounted to 96%. In series [3] (Example 7, culture two (with Tween 80 1.3 g), 48 h, 30° C., 160 rpm), the “efficiency of extraction into n-hexane” value is on record as 68%. Besides, the “recovered into the n-decane” value in series [3] (Example 8) was 100%. Also, in series [1] (Example 1, cellulose acetate, thickness 0.05 mm, M.W. cut-off 12-14,000 Da), the Rate of flux is 0.08 g nootkatone h^−1m^−2. g h^−1m^−2. In addition, in series [1], the “recovered into the decane” value is given as “component limonene. After 2.5 days, 28%” and the “amount recovered into the decane” value came out at 1.2 mg.
With `C=C(C)[C@@H]1CCC2=CCC[C@@H](C)[C@]2(C)C1` [valencene], in series [3] (Example 7, culture one), the “presence in the n-hexane extraction solvent” value was “not detected”. In addition, the “presence in the extraction solvent” value in series [3] (Example 7, culture two (with Tween 80)) is listed as “trace amount”. Also, the “presence in the n-decane” value in series [3] (Example 8, 72 h) was “not detected”.
